From patent publication US10316017B2, “COT modulators and methods of use thereof” (Gilead Sciences, Inc., priority 2015, dated 2019) come the findings set out here.

The IC50 is the point on the concentration scale where inhibition reaches its midpoint. A word on the EC50: it is the midpoint of the concentration-response curve.

For experiment [1], the target named is T1, human Cot catalytic domain (30-397 amino acids) (Homo sapiens, UniProt P41279).
T1 construct: Purified recombinant human Cot catalytic domain (30-397 amino acids) was purchased from Cama Biosciences; purchased Cama Biosciences (so in the source)
T1 sequence (P41279 30-397): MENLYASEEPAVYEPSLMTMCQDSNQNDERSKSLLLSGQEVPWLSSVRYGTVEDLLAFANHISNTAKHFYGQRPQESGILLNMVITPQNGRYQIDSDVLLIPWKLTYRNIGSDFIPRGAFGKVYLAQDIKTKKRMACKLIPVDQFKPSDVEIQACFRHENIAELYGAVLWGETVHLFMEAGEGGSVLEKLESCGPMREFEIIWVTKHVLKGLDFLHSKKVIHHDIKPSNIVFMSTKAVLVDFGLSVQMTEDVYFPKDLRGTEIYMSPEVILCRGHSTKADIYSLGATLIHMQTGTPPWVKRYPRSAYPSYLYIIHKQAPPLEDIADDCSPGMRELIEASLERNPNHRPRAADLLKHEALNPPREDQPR
Briefly: High Throughput Cot Biochemical Assay (KinEASE TR-FRET). Particulars: read-out: IC50 HTRF. The essentials: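 TR-FRET readout: Eu-labeled phospho-specific antibody binds XL665-tagged STK3 peptide after phosphorylation by Cot (aa 30-397, 5 nM). Conditions: 400 μM ATP, 1 μM peptide, MOPS pH 7.0 buffer with MgOAc, DTT, BSA, NP-40, glycerol; 0.1% DMSO.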

The subject of experiment [2] is TNFα production in LPS-stimulated human monocytes. Nature of the experiment: Cot Monocyte TNFα Cell Based Assay. To be noted: Homo sapiens, Monocyte, read-out: EC50 TNF. Put shortly: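 TR-FRET read-out of total secreted TNFα, normalized as % control (unstimulated = 0%, LPS-stimulated = 100%). Cells (5,000/well) were exposed to compound 1 h at 37 °C, then to 50 pg/ml LPS for a further 4 h.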

Where [3] appears, read: Cot biochemical HTRF (KinEASE TR-FRET) assay.
Where [4] appears, read: TNFα in LPS-stimulated human monocytes.
[5] abbreviates: Cot KinEASE TR-FRET, 400 μM ATP.
Where [6] appears, read: LPS-stimulated human monocytes, TNFα TR-FRET.
Setting [7] is: Cot KinEASE TR-FRET (HTRF) biochemical assay, 400 μM ATP.

Like-named read-outs stand apart in the source and are kept apart here. Some results are limits rather than exact numbers.

With `N#Cc1cnc2c(Cl)cc(N[C@@H](c3ccc(Cl)cc3)c3cn(C4CCN(C5COC5)CC4)nn3)cc2c1Nc1ccc(F)c(Cl)c1` [Example 802, (S)-8-chloro-4-((3-chloro-4-fluorophenyl)amino)-6-(((4-chlorophenyl)(1-(1-(oxetan-3-yl)piperidin-4-yl)-1H-1,2,3-triazol-4-yl)methyl)amino)quinoline-3-carbonitrile], the IC50 in experiment [1] (setting [3]) was 0.078 µM. In addition, in experiment [2] (setting [4]), the EC50 came out at 0.963 µM.
On to `COC(C)(C)CNc1c(C#N)cnc2c(Cl)cc(N[C@@H](c3ccccc3)c3cn(C4CCN(C(C)(C)C)CC4)nn3)cc12` [Example 451], for which the IC50 in experiment [1] (setting [3]) turned out to be 0.068 µM. Also, the half-maximal effective concentration (EC50) in experiment [2] (setting [4]) amounted to 0.266 µM.
Consider `[2H][C@@](Nc1cc(-c2cncnc2)c2ncc(C#N)c(N[C@H](CCC(=O)O)c3ccccc3)c2c1)(c1cn(C2CC2)nn1)c1ccccc1Cl` [Example 951, (R)-4-((6-(((S)-(2-chlorophenyl)(1-cyclopropyl-1H-1,2,3-triazol-4-yl)methyl-d)amino)-3-cyano-8-(pyrimidin-5-yl)quinolin-4-yl)amino)-4-phenylbutanoic acid], for which, in experiment [1] (setting [5]), the 50% inhibitory concentration (IC50) is at least 10 µM. The EC50 in experiment [2] (setting [6]) is at least 1 µM.
Consider `CC(C)(C)N1CCC(n2cc([C@@H](Nc3cc(Cl)c4ncc(C#N)c(Nc5cnc(F)c(F)c5)c4c3)c3ccc(Cl)cc3)nn2)CC1` [Example 660, (S)-6-(((1-(1-(tert-butyl)piperidin-4-yl)-1H-1,2,3-triazol-4-yl)(4-chlorophenyl)methyl)amino)-8-chloro-4-((5,6-difluoropyridin-3-yl)amino)quinoline-3-carbonitrile], for which, in experiment [1] (setting [3]), the half-maximal inhibitory concentration (IC50) is 0.014 µM. Further, in experiment [2] (setting [4]), the EC50 is 0.807 µM.
For the molecule `[2H][C@](Nc1cc(Cl)c2ncc(C#N)c(Nc3cnc(F)c(F)c3)c2c1)(c1ccc(F)cc1)c1cn(C2(C(F)(F)F)CC2)nn1` [Example 371, (S)-8-chloro-4-((5,6-difluoropyridin-3-yl)amino)-6-(((4-fluorophenyl)(1-(1-(trifluoromethyl)cyclopropyl)-1H-1,2,3-triazol-4-yl)methyl-d)amino)quinoline-3-carbonitrile], the IC50 in experiment [1] (setting [7]) was determined as 0.154 µM. Further, the concentration for a half-maximal effect (EC50) in experiment [2] (setting [4]) was found to be 0.877 µM.
As for `[2H][C@](Nc1cc(Cl)c2ncc(C#N)c(NC(C)(C)CO)c2c1)(c1ccc(F)cc1)c1cn(C2CC2)nn1` [Example 173, (S)-8-chloro-6-(((1-cyclopropyl-1H-1,2,3-triazol-4-yl)(4-fluorophenyl)methyl-d)amino)-4-((1-hydroxy-2-methylpropan-2-yl)amino)quinoline-3-carbonitrile], the IC50 in experiment [1] (setting [7]) was found to be 0.14 µM. Also, in experiment [2] (setting [4]), the EC50 came out at 1.85 µM.
Consider `CC(C)(C)CNc1c(C#N)cnc2c(C#N)cc(N[C@@H](c3ccccc3)c3cn(C4(C(F)(F)F)CC4)nn3)cc12` [Example 1065, (S)-4-(neopentylamino)-6-((phenyl(1-(1-(trifluoromethyl)cyclopropyl)-1H-1,2,3-triazol-4-yl)methyl)amino)quinoline-3,8-dicarbonitrile], for which, in experiment [1] (setting [5]), the concentration for half-maximal inhibition (IC50) came to 0.022 µM. Moreover, the concentration giving a half-maximal response (EC50) in experiment [2] (setting [6]) is 0.237 µM.
With `[2H][C@@](Nc1cc(Cl)c2ncc(C#N)c(NCC(C)(C)C)c2c1)(c1cn(CC2(O)COC2)nn1)c1ccccc1Cl` [Example 104, 8-chloro-6-(((2-chlorophenyl) (1-((3-hydroxyoxetan-3-yl)methyl)-1H-1,2,3-triazol-4-yl)methyl-d)amino)-4-(neopentylamino) quinoline-3-carbonitrile], the IC50 in experiment [1] (setting [7]) turned out to be 0.023 µM. Also, the EC50 in experiment [2] (setting [4]) stood at 0.584 µM.
`Cc1c(C#N)cccc1[C@H](Nc1cc(Cl)c2ncc(C#N)c(NCC(C)(C)C)c2c1)c1cn(C2(C3CC3)CC2)nn1` [Example 1109, (S)-6-(((1-([1,1'-bi(cyclopropan)]-1-yl)-1H-1,2,3-triazol-4-yl)(3-cyano-2-methylphenyl)-methyl)amino)-8-chloro-4-(neopentylamino)quinoline-3-carbonitrile]: in experiment [1] (setting [5]), the concentration for half-maximal inhibition (IC50) was 0.005 µM. The concentration giving a half-maximal response (EC50) in experiment [2] (setting [6]) was determined as 0.057 µM.
In the case of `Cc1c(C#N)cccc1[C@H](Nc1cc(Cl)c2ncc(C#N)c(NCC(C)(C)C)c2c1)c1cn([C@@H](C)CF)nn1` [Example 1103, 8-chloro-6-(((S)-(3-cyano-2-methylphenyl)(1-((S)-1-fluoropropan-2-yl)-1H-1,2,3-triazol-4-yl)methyl)amino)-4-(neopentylamino)quinoline-3-carbonitrile], in experiment [1] (setting [5]), the concentration for half-maximal inhibition (IC50) came out at 0.005 µM. Moreover, the EC50 in experiment [2] (setting [6]) stood at 0.026 µM.
As to `CC[C@@H](Nc1c(C#N)cnc2c(Cl)cc(N[C@H](c3cn(C(F)F)nn3)c3cccc(F)c3F)cc12)c1ccccc1` [Example 428, 8-chloro-6-(((S)-(1-(difluoromethyl)-1H-1,2,3-triazol-4-yl)(2,3-difluorophenyl)methyl)amino)-4-(((R)-1-phenylpropyl)amino) quinoline-3-carbonitrile], in experiment [1] (setting [3]), the IC50 stood at 0.087 µM. Also, in experiment [2] (setting [4]), the EC50 was 1.83 µM.
In the case of `N#Cc1cnc2c(Cl)cc(N[C@@H](c3ccc(F)cc3)c3c[nH]nn3)cc2c1Nc1cnc(F)c(Cl)c1` [Example 425, (S)-8-chloro-4-((5-chloro-6-fluoropyridin-3-yl)amino)-6-(((4-fluorophenyl)(1H-1,2,3-triazol-4-yl)methyl)amino)quinoline-3-carbonitrile], in experiment [1] (setting [3]), the half-maximal inhibitory concentration (IC50) worked out at 0.01 µM. Also, the concentration for a half-maximal effect (EC50) in experiment [2] (setting [4]) was 0.438 µM.
`[2H][C@](Nc1cc(Cl)c2ncc(C#N)c(N[C@@H](C)C(C)(C)C)c2c1)(c1ccc(F)cc1)c1cn(C2CC2)nn1` [Example 244, 8-chloro-6-(((S)-(1-cyclopropyl-1H-1,2,3-triazol-4-yl)(4-fluorophenyl)methyl-d)amino)-4-(((S)-3,3-dimethylbutan-2-yl)amino)quinoline-3-carbonitrile]: in experiment [1] (setting [7]), the IC50 stood at 0.576 µM. In addition, in experiment [2] (setting [4]), the EC50 was found to be 5.69 µM.
Turning to `Cc1ccccc1[C@H](Nc1cc(C#N)c2ncc(C#N)c(NCC(C)(C)C)c2c1)c1cn(C2(C(F)(F)F)CC2)nn1` [Example 1067, (S)-4-(neopentylamino)-6-((o-tolyl(1-(1-(trifluoromethyl)cyclopropyl)-1H-1,2,3-triazol-4-yl)methyl)amino)quinoline-3,8-dicarbonitrile], the IC50 in experiment [1] (setting [5]) was determined as 0.017 µM. The concentration for a half-maximal effect (EC50) in experiment [2] (setting [6]) came out at 0.213 µM.
For the molecule `CC(C)(C)N1CCC(n2cc([C@@H](Nc3cc(Cl)c4ncc(C#N)c(Nc5ccc(F)c(Cl)c5)c4c3)c3cccc(C(=O)N4CCC4)c3)nn2)CC1` [Example 675, (S)-6-(((3-(azetidine-1-carbonyl)phenyl)(1-(1-(tert-butyl)piperidin-4-yl)-1H-1,2,3-triazol-4-yl)methyl)amino)-8-chloro-4-((3-chloro-4-fluorophenyl)amino)quinoline-3-carbonitrile], the IC50 in experiment [1] (setting [3]) turned out to be 0.001 µM. In addition, the EC50 in experiment [2] (setting [4]) was determined as 0.081 µM.
For the molecule `Cc1c(-c2ccnnc2)cccc1[C@H](Nc1cc(C#N)c2ncc(C#N)c(NCC(C)(C)C)c2c1)c1cn(C2(C(F)F)CC2)nn1` [Example 1155, (S)-6-(((1-(1-(difluoromethyl)cyclopropyl)-1H-1,2,3-triazol-4-yl)(2-methyl-3-(pyridazin-4-yl)phenyl)methyl)amino)-4-(neopentylamino)quinoline-3,8-dicarbonitrile], the concentration for half-maximal inhibition (IC50) in experiment [1] (setting [5]) worked out at 0.001 µM. For the same molecule, in experiment [2] (setting [6]), the concentration giving a half-maximal response (EC50) was 0.06 µM.
As for `[2H][C@](Nc1cc(Cl)c2ncc(C#N)c(N[C@H]3CCCC[C@H]3N)c2c1)(c1ccc(F)cc1)c1cn(C2CC2)nn1` [Example 230, 4-(((1S,2R)-2-aminocyclohexyl)amino)-8-chloro-6-(((S)-(1-cyclopropyl-1H-1,2,3-triazol-4-yl)(4-fluorophenyl)methyl-d)amino)quinoline-3-carbonitrile], the IC50 in experiment [1] (setting [7]) worked out at 0.337 µM. Moreover, the EC50 in experiment [2] (setting [4]) was above 10 µM.
Consider `CC(C)(C)N1CCC(n2cc([C@@H](Nc3cc(Cl)c4ncc(C#N)c(Nc5ccc(F)c(Cl)c5)c4c3)c3cccc(C(=O)O)c3)nn2)CC1` [Compound 19], for which the IC50 in experiment [1] (setting [7]) was 0.005 µM. Also, in experiment [2] (setting [4]), the 50% effective concentration (EC50) turned out to be 18 µM.
For the molecule `CC(Nc1c(C#N)cnc2c(Cl)cc(N[C@@H](c3ccc(Cl)cc3)c3cn(C4CCN(C(C)(C)C)CC4)nn3)cc12)c1ccccn1` (stereo partly drawn) [Example 697, 6-(((S)-(1-(1-(tert-butyl)piperidin-4-yl)-1H-1,2,3-triazol-4-yl)(4-chlorophenyl)methyl)amino)-8-chloro-4-((1-(pyridin-2-yl)ethyl)amino)quinoline-3-carbonitrile], the IC50 in experiment [1] (setting [3]) was above 10 µM. Also, in experiment [2] (setting [4]), the half-maximal effective concentration (EC50) came to 17.1 µM.
Regarding `CC(C)(C)CNc1c(C#N)cnc2c(C#N)cc(N[C@H](c3cn(C4(C)CC4)nn3)c3ccccc3Cl)cc12` [Example 962, (S)-6-(((2-chlorophenyl)(1-(1-methylcyclopropyl)-1H-1,2,3-triazol-4-yl)methyl)amino)-4-(neopentylamino)quinoline-3,8-dicarbonitrile], the half-maximal inhibitory concentration (IC50) in experiment [1] (setting [5]) worked out at 0.007 µM. Besides, the 50% effective concentration (EC50) in experiment [2] (setting [6]) came out at 0.116 µM.
In the case of `N#Cc1cnc2c(Cl)cc(N[C@@H](c3cccc(CN4CC(F)(F)C4)c3)c3c[nH]nn3)cc2c1Nc1ccc(Cl)c(Cl)c1F` [Example 518, (S)-8-chloro-4-((3,4-dichloro-2-fluorophenyl)amino)-6-(((3-((3,3-difluoroazetidin-1-yl)methyl)phenyl)(1H-1,2,3-triazol-4-yl)methyl)amino) quinoline-3-carbonitrile], the IC50 in experiment [1] (setting [3]) came to 0.052 µM. The half-maximal effective concentration (EC50) in experiment [2] (setting [4]) worked out at 0.57 µM.
